One assay has as its target T1, human oxytocin receptor (Homo sapiens, UniProt P30559).
T1 construct: host or cells: CHO cells, stably transfected (pcDNA3.1 vector)
T1 sequence (P30559 1-389): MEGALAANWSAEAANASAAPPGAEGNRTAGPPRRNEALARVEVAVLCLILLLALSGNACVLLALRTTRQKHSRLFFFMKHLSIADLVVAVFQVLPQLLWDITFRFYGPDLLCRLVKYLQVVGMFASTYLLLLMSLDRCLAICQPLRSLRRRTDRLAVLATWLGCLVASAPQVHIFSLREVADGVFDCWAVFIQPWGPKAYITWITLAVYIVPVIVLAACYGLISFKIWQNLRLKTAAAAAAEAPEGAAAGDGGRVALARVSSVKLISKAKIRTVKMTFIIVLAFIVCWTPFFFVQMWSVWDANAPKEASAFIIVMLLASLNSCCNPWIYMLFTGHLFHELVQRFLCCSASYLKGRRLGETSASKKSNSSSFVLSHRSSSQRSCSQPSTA
The assay can be described thus: Oxytocin binding in CHO cell membranes expressing human oxytocin receptors ([3H]oxytocin radioligand binding). As to conditions: 100 nM. On the procedure:
Oxytocin Binding in Chinese Hamster Ovary Cell Membranes Expressing Human Oxytocin Receptors
Cell Culture medium (e.g. 30 mL for 1:30 split) is immediately added and mixed well to inactivate trypsin. 1 mL of detached cells is added to new culture flasks containing fresh Cell Culture medium (e.g. into 25 mL per T-150 flask), and mixed gently. The cells are incubated at 37° C. in 5% CO2. The medium is changed at 3 to 4 days interval (or as appropriate). […] All steps are done under sterile conditions.
The cells are washed twice gently with Hank's Balanced Salt solution (e.g., use 10 mL per T-150 flask). […] The contents are transferred to centrifuge tubes (50 mL size) kept in ice bath. All subsequent steps are done at 4° C. The tubes are centrifuged at 300×g for 15 min (1380 rpm on SORVAL, Model RT6000D, using rotor for 50 mL tubes). The supernatant is discarded and the cells suspended in homogenizing buffer (10 mM Tris-HCl containing 0.25 M sucrose and 1 mM EDTA, pH 7.4) ensuring that the volume of the buffer is about ten times the volume of the cell pellet. The cells are pooled into a centrifuge tube (50 mL) and homogenized with a Polytron at setting 6 for 10 sec. The homogenate is transferred into a Potter-Elvjehm homogenizer and homogenized with 3 strokes. The homogenate is centrifuged at 1500×g for 10 min at 4° C. (3100 rpm using SORVAL, model RT6000D, using a rotor for 50 mL tubes). The pellet is discarded. The supernatant is centrifuged at 100,000×g for 60 min. at 4° C. (Beckman L8-80M ultracentrifuge; spin at 37,500 rpm with rotor type 70 Ti for 50 mL tubes; 38,000 rpm with rotor type 8OTi for 15 mL tubes; or 35,800 rpm with rotor type 45Ti). The supernantant is discarded and the pellet suspended in 3 to 4 mL of Tris buffer (50 mM TRIS-HCl, pH 7.4). The protein content is estimated by the Bradford or Lowry method. The volume of the membrane suspension is adjusted with the membrane buffer (50 mM Tris-HCl containing 0.1% BSA and 0.1 mM PMSF) to give 3.0 mg/mL (or as appropriate) of protein. The membranes are aliquoted and stored at −70° C.
In wells of a 96-well format microtiter plate, is added 90, 110 or 130 μL (to make up a final volume of 200 μL) of assay buffer containing 50 mM of Tris-HCl (pH 7.4), […], 1 mg % aprotinin, 1 mg % leupeptin, 2 mg % 1,10-phenanthroline, 10 mg % trypsin inhibitor, and 0.1 mM PMSF. The inhibitors are added on the day of the experiment. The components are mixed at room temperature, and then kept in ice bath following adjustment of the pH to 7.4. […] For oxytocin and other peptide ligands, 20 μL of 50% DMSO is added and the assay buffer volume is adjusted accordingly. To each well is added 50 μL of frozen membrane suspension thawed immediately prior to use and diluted in assay buffer to the required concentration (equivalent to 25 to 50 μg of protein/well as needed). 20 μL of 8 nM [^3H]oxytocin in the assay buffer, prepared just before use is added and incubated at room temperature for 60 min. shaking the plate on a mechanical shaker for the first 15 min. The incubation is stopped by rapid filtration of the plate contents followed by washing with ice-cold buffer (50 mM Tris-HCl, pH 7.4) using a cell harvester (Tomtek and Printed filtermat-B filter paper). The filter paper is thoroughly dried (7–12 min. in a microwave oven) and impregnated with MeltiLex B/H melt-on scintillation wax sheets and the radioactivity counted in a betaplate scintillation counter.
Binding data is either reported as percent inhibition at a certain concentration or if an IC50 was calculated, as a nanomolar concentration.
Regarding `Cc1cc(C(=O)N2Cc3ccc(C(=O)NCCc4ccccn4)n3Cc3ccccc32)ccc1-c1ccccc1C(F)(F)F` [Example 61, 10-{[2-Methyl-2′-trifluoromethyl=[1,1′-biphenyl]-4-yl]carbonyl}-N-[2-(2-pyridinyl)ethyl]-10,11-dihydro-5H-pyrrolo[2,1-c][1,4]benzodiazepine-3-carboxamide], the “OT % inhibition @ 100 nM” value came out at 26%.
The same measure, in the same setting: with `COc1cc(C(=O)N2Cc3ccc(C(=O)N4CCN(c5ccccn5)CC4)n3Cc3ccccc32)ccc1-c1cccc2ccccc12` [Example 83] the figure was 30%; with `COc1cccc(-c2ccc(C(=O)N3Cc4ccc(C(=O)NCc5ccncc5)n4Cc4ccccc43)cc2OC)c1` [Example 98], 39%.
Same read-out and setting: with `COc1cccc(-c2ccc(C(=O)N3Cc4ccc(C(=O)N(C)Cc5cccnc5)n4Cc4ccccc43)cc2OC)c1` [Example 110] the figure was 94%; with `COc1cc(C(=O)N2Cc3ccc(C(=O)N4CCN(c5ccncc5)CC4)n3Cc3ccccc32)ccc1-c1ccccc1C` [Example 118], 83%.

Still in this assay, the particulars now being: 100 nM, read-out: OT % inhibition @ 100 nM.
A word on the inhibition: it is the drop in the measured response relative to a control, in per cent. On to `O=C(NCCc1ccccn1)c1ccc2n1Cc1ccccc1N(C(=O)c1ccc(-c3cccc4ccccc34)cc1Cl)C2` [Example 60, 10-[2-Chloro-4-(naphthalen-1-yl)benzoyl]-N-[2-(2-pyridinyl)ethyl]-10,11-dihydro-5H-pyrrolo[2,1-c][1,4]benzodiazepine-3-carboxamide], for which the inhibition at 0.1 µM came to 11%.
Same read-out and setting: then `COc1ccccc1-c1ccc(C(=O)N2Cc3ccc(C(=O)N(C)CCc4ccccn4)n3Cc3ccccc32)cc1OC` [Example 64, 10-[(2,2′-Dimethoxy-[1,1′-biphenyl]-4-yl)carbonyl]-N-methyl-N-[2-(2-pyridinyl)ethyl]-10,11-dihydro-5H-pyrrolo[2,1-c][1,4]benzodiazepine-3-carboxamide], with 91%.
On the same count and under the same terms, with `COc1cc(C(=O)N2Cc3ccc(C(=O)N(C)Cc4cccnc4)n3Cc3ccccc32)ccc1-c1ccccc1C` [Example 106, 10-[(2-Methoxy-2′-methyl-[1,1′-biphenyl]-4-yl)carbonyl]-N-methyl-N-(3-pyridinylmethyl)-10,11-dihydro-5H-pyrrolo[2,1-c][1,4]benzodiazepine-3-carboxamide] the figure was 98%; with `COc1cc(-c2ccccc2C)c(Cl)cc1C(=O)N1Cc2ccc(C(=O)N(C)Cc3cccnc3)n2Cc2ccccc21` [Example 107, 10-[(6-Chloro-3-methoxy-2′-methyl-[1,1′-biphenyl]-4-yl)carbonyl]-N-methyl-N-(3-pyridinylmethyl)-10,11-dihydro-5H-pyrrolo[2,1-c][1,4]benzodiazepine-3-carboxamide], 92%; with `COc1cccc(-c2cc(OC)c(C(=O)N3Cc4ccc(C(=O)N(C)Cc5cccnc5)n4Cc4ccccc43)cc2Cl)c1` [Example 108, 10-[(6-Chloro-3,3′-dimethoxy-[1,1′-biphenyl]-4-yl)carbonyl]-N-methyl-N-(3-pyridinylmethyl)-10,11-dihydro-5H-pyrrolo[2,1-c][1,4]benzodiazepine-3-carboxamide], 83%.
The same measure, in the same setting: with `COc1cc(C(=O)N2Cc3ccc(C(=O)N(C)Cc4cccnc4)n3Cc3ccccc32)ccc1-c1cccc2ccccc12` [Example 109, 10-[3-Methoxy-4-(naphthalen-1-yl)benzoyl]-N-methyl-N-(3-pyridinylmethyl)-10,11-dihydro-5H-pyrrolo[2,1-c][1,4]benzodiazepine-3-carboxamide] the figure was 70%; with `CN(Cc1cccnc1)C(=O)c1ccc2n1Cc1ccccc1N(C(=O)c1ccc(-c3cccc4ccccc34)cc1Cl)C2` [Example 111, 10-[2-Chloro-4-(naphthalen-1-yl)benzoyl]-N-methyl-N-(3-pyridinylmethyl)-10,11-dihydro-5H-pyrrolo[2,1-c][1,4]benzodiazepine-3-carboxamide], 36%.
Take `Cc1ccccc1-c1ccc(C(=O)N2Cc3ccc(C(=O)N4CCN(c5ccncc5)CC4)n3Cc3ccccc32)cc1C` [Example 114, {10-[(2,2′-Dimethyl-[1,1′-biphenyl]-4-yl)carbonyl]-10,11-dihydro-5H-pyrrolo[2,1-c][1,4]benzodiazepin-3-yl}[4-(4-pyridinyl)-1-piperazinyl]methanone]: the inhibition at 0.1 µM was 94%.
Still for that read-out and setting: then `COc1cccc(-c2ccc(C(=O)N3Cc4ccc(C(=O)N5CCN(c6ccncc6)CC5)n4Cc4ccccc43)cc2C)c1` [Example 115, {10-[(3′-Methoxy-2-methyl-[1,1′-biphenyl]-4-yl)carbonyl]-10,11-dihydro-5H-pyrrolo[2,1-c][1,4]benzodiazepin-3-yl}[4-(4-pyridinyl)-1-piperazinyl]methanone], with 66%.
On the same count and under the same terms, with `COc1ccccc1-c1ccc(C(=O)N2Cc3ccc(C(=O)N4CCN(c5ccncc5)CC4)n3Cc3ccccc32)cc1` [Example 116, {10-[(2′-Methoxy-[1,1′-biphenyl]-4-yl)carbonyl]-10,11-dihydro-5H-pyrrolo[2,1-c][1,4]benzodiazepin-3-yl}[4-(4-pyridinyl)-1-piperazinyl]methanone] the figure was 101%; with `Cc1ccccc1-c1ccc(C(=O)N2Cc3ccc(C(=O)N4CCN(c5ccncc5)CC4)n3Cc3ccccc32)cc1` [Example 117, {10-[(2′-Methyl-[1,1′-biphenyl]-4-yl)carbonyl]-10,11-dihydro-5H-pyrrolo[2,1-c][1,4]benzodiazepin-3-yl}[4-(4-pyridinyl)-1-piperazinyl]methanone], 13%.
Still for that read-out and setting: then `COc1cc(-c2ccccc2C)c(Cl)cc1C(=O)N1Cc2ccc(C(=O)N3CCN(c4ccncc4)CC3)n2Cc2ccccc21` [Example 119, {10-[(6-Chloro-3-methoxy-2′-methyl-[1,1′-biphenyl]-4-yl)carbonyl]-10,11-dihydro-5H-pyrrolo[2,1-c][1,4]benzodiazepin-3-yl}[4-(4-pyridinyl)-1-piperazinyl]methanone], with 83%; and `COc1cccc(-c2cc(OC)c(C(=O)N3Cc4ccc(C(=O)N5CCN(c6ccncc6)CC5)n4Cc4ccccc43)cc2Cl)c1` [Example 120, {10-[(6-Chloro-3,3′-dimethoxy-[1,1′-biphenyl]-4-yl)carbonyl]-10,11-dihydro-5H-pyrrolo[2,1-c][1,4]benzodiazepin-3-yl}[4-(4-pyridinyl)-1-piperazinyl]methanone], with 67%; and `COc1cc(C(=O)N2Cc3ccc(C(=O)N4CCN(c5ccncc5)CC4)n3Cc3ccccc32)ccc1-c1cccc2ccccc12` [Example 121, {10-[3-Methoxy-4-(naphthalen-1-yl)benzoyl]-10,11-dihydro-5H-pyrrolo[2,1-c][1,4]benzodiazepin-3-yl}[4-(4-pyridinyl)-1-piperazinyl]methanone], with 57%.

Values taken from patent US7064120B2, “Tricyclic pyridyl carboxamides and derivatives thereof tocolytic oxytocin receptor antagonists” (Wyeth, priority 2001, dated 2006).
